In PubChem BioAssay (NCI) one finds TGI data, which are given here for nine molecules.

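A five-concentration, 48-hour dose response in 96-well plates underlies each endpoint, interpolated linearly between surrounding concentrations. TGI is the concentration that stops growth completely.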

Test systems include 786-0 renal; CAKI-1 renal; HOP-62 NSCLC; HS 578T breast; K-562 leukemia; NCI-H460 lung; OVCAR-3 ovarian; OVCAR-5 ovarian; PC-3 prostate; RPMI-8226 leukemia; SF-268 CNS; SF-539 CNS; SK-OV-3 ovarian; U251 CNS; COLO 205 colon; SN12C renal; SNB-19 CNS.
What all share (test): growth of human tumour cells (NCI), 48 h

As for `CC1=CC(=O)CC(C)(C)C1/C=C/C(C)=C/C=C/C(C)=C/C=C/C=C(C)/C=C/C=C(C)/C=C/C1C(C)=CC(=O)CC1(C)C` (stereo unspecified), the TGI in the test on 786-0 renal, in the test on CAKI-1 renal, with HOP-62 NSCLC, with HS 578T breast, in the test with K-562 leukemia and in the test on NCI-H460 lung was more than 100 µM in each case. The TGI with OVCAR-3 ovarian, in the test on OVCAR-5 ovarian, in the test on PC-3 prostate, with RPMI-8226 leukemia, in the test on SF-268 CNS and in the test with SF-539 CNS was more than 100 µM each time. For the same molecule, the TGI with SK-OV-3 ovarian and in the test with U251 CNS was more than 100 µM each time.
Regarding `O=c1oc2ccccc2nc1/C=C(\O)c1ccc(Cl)cc1`, the TGI with 786-0 renal, in the test on CAKI-1 renal, in the test on COLO 205 colon, in the test with HOP-62 NSCLC, with HS 578T breast and with K-562 leukemia was more than 100 µM throughout. Further, the TGI with NCI-H460 lung, with OVCAR-3 ovarian, in the test on OVCAR-5 ovarian, in the test on PC-3 prostate, with SF-268 CNS and in the test with SF-539 CNS was more than 100 µM throughout. Besides, the TGI in the test on SK-OV-3 ovarian, in the test on SN12C renal, in the test on SNB-19 CNS and in the test with U251 CNS was more than 100 µM in each case.
On to `C=CCn1c(-c2ccc([N+](=O)[O-])cc2)cs/c1=N\C(P(=O)(O)O)P(=O)(O)O`, for which the TGI in the test on 786-0 renal, with CAKI-1 renal, in the test with COLO 205 colon, in the test on HOP-62 NSCLC, in the test with HS 578T breast and with K-562 leukemia was more than 100 µM in each case. Further, the TGI in the test with NCI-H460 lung, in the test with OVCAR-3 ovarian, in the test on OVCAR-5 ovarian, with PC-3 prostate, in the test on RPMI-8226 leukemia and in the test with SF-268 CNS was more than 100 µM in each case. The TGI in the test on SF-539 CNS, with SK-OV-3 ovarian, in the test with SNB-19 CNS and in the test with U251 CNS was more than 100 µM throughout.
As to `O=C(NC1(c2cc3ccccc3s2)CCCCC1)C1CCC1`, the TGI is more than 100 µM in the test with 786-0 renal; more than 100 µM in the test on CAKI-1 renal; more than 100 µM in the test with COLO 205 colon; more than 100 µM with HOP-62 NSCLC; 83.7 µM in the test on HS 578T breast; more than 100 µM with K-562 leukemia. Also, the TGI in the test on NCI-H460 lung, in the test on OVCAR-3 ovarian, in the test with OVCAR-5 ovarian, in the test with PC-3 prostate, with RPMI-8226 leukemia and in the test on SF-539 CNS was more than 100 µM in each case. Further, the TGI with SK-OV-3 ovarian, in the test on SN12C renal, in the test with SNB-19 CNS and in the test with U251 CNS was more than 100 µM in each case.
For `N#Cc1cc(C#N)c(N)nc1N`, the TGI in the test with 786-0 renal, in the test with CAKI-1 renal, in the test on COLO 205 colon, in the test on HOP-62 NSCLC, in the test on HS 578T breast and in the test with K-562 leukemia was more than 100 µM throughout. For the same molecule, the TGI in the test with NCI-H460 lung, in the test on OVCAR-3 ovarian, in the test on OVCAR-5 ovarian, in the test with PC-3 prostate, in the test on RPMI-8226 leukemia and in the test on SF-539 CNS was more than 100 µM in each case. The TGI with SK-OV-3 ovarian, with SN12C renal, in the test with SNB-19 CNS and in the test on U251 CNS was more than 100 µM each time.
Regarding `C#C[C@]1(O)CC[C@H]2[C@@H]3CCC4=C/C(=N/OCCN(C)C)CC[C@]4(C)[C@H]3CC[C@@]21C`, the TGI in the test with 786-0 renal, in the test on CAKI-1 renal, in the test with COLO 205 colon, with HOP-62 NSCLC, in the test on HS 578T breast and in the test with K-562 leukemia was more than 100 µM in each case. Besides, the TGI in the test on NCI-H460 lung was more than 100 µM; with OVCAR-3 ovarian it was 65.2 µM; in the test on OVCAR-5 ovarian, more than 100 µM; in the test on PC-3 prostate, more than 100 µM; in the test with RPMI-8226 leukemia it was more than 100 µM; in the test with SF-268 CNS, more than 100 µM. The TGI in the test with SK-OV-3 ovarian, in the test with SN12C renal, in the test on SNB-19 CNS and in the test with U251 CNS was more than 100 µM each time.
Take `Oc1ccc(O)c(CNc2ccc(C(O)C(F)(F)F)cc2)c1` (stereo unspecified): the TGI is 29 µM with 786-0 renal; 29.7 µM with CAKI-1 renal; 37.8 µM in the test with COLO 205 colon; 43 µM in the test on HOP-62 NSCLC; more than 100 µM with HS 578T breast; more than 100 µM in the test with K-562 leukemia. Besides, the TGI was 47.3 µM in the test on NCI-H460 lung; 15.4 µM with OVCAR-3 ovarian; 40.8 µM in the test with OVCAR-5 ovarian; more than 100 µM in the test with PC-3 prostate; 66 µM in the test on SF-268 CNS; 21.1 µM in the test on SF-539 CNS. The TGI in the test with SK-OV-3 ovarian is more than 100 µM; in the test with SN12C renal it was 47.5 µM; in the test on SNB-19 CNS it was more than 100 µM; with U251 CNS, more than 100 µM.
For the molecule `CC(=O)Nc1c(S(=O)(=O)c2ccccc2)c(C)c(C)n1CCN(C)C`, the TGI in the test on 786-0 renal, in the test with CAKI-1 renal, in the test on COLO 205 colon, in the test on HS 578T breast, with K-562 leukemia and in the test on NCI-H460 lung was more than 100 µM each time. Also, the TGI in the test with OVCAR-3 ovarian, in the test on OVCAR-5 ovarian, in the test on PC-3 prostate, in the test on RPMI-8226 leukemia, in the test with SF-268 CNS and in the test on SF-539 CNS was more than 100 µM throughout. For the same molecule, the TGI in the test on SK-OV-3 ovarian, in the test on SN12C renal, in the test on SNB-19 CNS and in the test with U251 CNS was more than 100 µM throughout.
For `Cc1ccc(NC(Nc2ccc(C)cc2C)=C(C(Cl)=C(Cl)Cl)[N+](=O)[O-])c(C)c1`, the TGI in the test on 786-0 renal was 30.1 µM; in the test on CAKI-1 renal it was 37.4 µM; with COLO 205 colon, 32 µM; in the test on HOP-62 NSCLC, 34.2 µM; in the test on HS 578T breast, more than 100 µM; in the test on K-562 leukemia, 24.6 µM. The TGI in the test on NCI-H460 lung was 29.7 µM; with OVCAR-3 ovarian, 29.7 µM; in the test on PC-3 prostate, 25 µM; in the test on RPMI-8226 leukemia, 52.8 µM; in the test on SF-268 CNS, 33.2 µM; in the test with SF-539 CNS, 43 µM. Besides, the TGI stood at 39.8 µM in the test on SK-OV-3 ovarian, 33 µM with SN12C renal and 30 µM in the test on SNB-19 CNS.
